Tests used:
HIV-1 = details: treatment period of 10-14 days, dose-dependent; cited from earlier work
[1] = single administration of TAK-652 solution (Baba et al., 2005); cited from earlier work
[2] = tested on: reporter viruses pseudotyped with HIV-1SF162 envelope; type: cell-based; set-up: CI90: unit not given beside the values; details: labelled 1st inhibitor with 2nd inhibitor PRO 140; envelope SF162; equimolar (1:10 PRO 140 to zidovudine or nevirapine)
Source text: A self-inactivating (SIN) vector was derived from the pNL4-3ΔEnv-luciferase vector (Dragic et al. 1996) by deleting 507 basepairs in the U3 region of the 3′ long terminal repeat (LTR) so as to remove the TATA box and transcription factor binding sites. The human cytomegalovirus promoter was inserted upstream of the luciferase (luc) gene to enable expression of luciferase following integration.
Reporter viruses pseudotyped with HIV-1JR-FL or HIV-1SF162 envelopes were generated by cotransfection of 293T cells with the SIN vector and the appropriate pcDNA env-expressing vector as previously described (Dragic et al. 1996). […] Cultures were incubated for 72 h at 37° C. in DMEM containing 10% fetal bovine serum, 1 mg/mL puromycin, 0.3 mg/mL geneticin, antibiotics, and 0.5% DMSO. Luciferase activity (relative light units or RLU) was measured using BrightGlo reagent (Promega, Madison, Wis.) according to the manufacturer's instructions. Percent inhibition was calculated as: (1−RLU in the presence of inhibitor/RLU in the absence of inhibitor)×100.
Experimental design and data analysis were based on the combination index (CI) method (Chou et al. 1991; Chou et al. 1984). Compounds were tested individually and in combination at a fixed molar ratio over a range of serial dilutions. […] The mutually exclusive CI formula was used for combinations of CCR5 inhibitors, while the mutually non-exclusive formula was utilized for combinations of inhibitors to distinct targets (Chou et al. 1991). Each test was conducted 4-12 times. Synergy, additivity and antagonism are indicated by CI<1, CI=1 and CI>1, respectively.

[3] = tested on: reporter viruses pseudotyped with HIV-1JR-FL envelope; type: cell-based; set-up: CI90: unit not given beside the values; details: for CI50 / CI90: labelled 1st inhibitor with 2nd inhibitor PRO 140, envelope JRFL, equimolar (1:10 PRO 140 to zidovudine or nevirapine); for inhibition of HIV-1 pseudovirus entry: result in words, data not shown
Source text: HIV-1 pseudoparticles (HIV-1pp) are generated in 293T cells by transient coexpression of an HIV-1-based NL4/3luc+env− plasmid and a construct encoding HIV-1JRFL Env. The NL4/3luc+env− plasmid was obtained from the NIH AIDS Research and Reference Reagent Program (Cat. No. 3418), and the HIV-1JRFL Env was inserted into the pcDNA3.1 vector (Invitrogen). Briefly, 293T cells are calcium phosphate transfected with a 1:1 ratio of NL4/3luc+env− reporter vector and Env expression vector in Hepes buffer (Profection Mammalian Transfection Kit, Promega). After 16 h the transfection medium is aspirated and fresh cell culture medium (DMEM with 10% FBS, glutamine and antibiotics) is added and the incubation is continued at 37° C. for an additional 24-32 h. Cell culture supernatants are collected 48 h post-transfection and centrifuged at 1,400 rpm for 10 min to pellet cell debris. The viral supernatant is brought to a final concentration of 5% sucrose and stored aliquoted at −80° C.
U87-CD4-CCR5 cells were obtained from the NIH AIDS Research and Reference Program (Cat. No. 4035). These cells are maintained in culture medium (DMEM with 10% FBS, antibiotics and glutamine) containing 0.3 mg/ml G418 and 0.5 mg/ml puromycin. Cells are grown in T175-cm^2 flasks at 37° C. and diluted 1:5 every 3-4 days. For assay plate preparation, cells are trypsinized and seeded into wells of 96-well tissue-culture treated flat bottom opaque polystyrene plates (Perkin Elmer, Boston, Mass.) at a density of 3×10^3 cells/well. Plates are incubated for no more than 4 h at 37° C. in a humidified 5% CO2 incubator prior to their use in the HIV-1 pp susceptibility assay.
Fifty μl of diluted compound at 4× the desired final concentration are added per well. For compounds solubilized in DMSO, the 4× stock will contain 2% DMSO (such that the final DMSO concentration in the assay is always 0.5% for small molecules). Control wells receiving no compound are included on each plate. In addition, an AZT inhibition control is included in each assay. Compounds are tested individually and at a fixed mass or molar ratio over a broad range of concentrations.
A vial of frozen, aliquoted HIV-1pp is thawed in a 37° C. waterbath and then placed on wet ice. Virus is diluted in cold cell culture medium as necessary to achieve the desired final virus concentration in the HIV-1pp assay (about 10,000 relative light units (rlu) per well). 50 μl of diluted virus are added per well, bringing the final well volume to 200 μl. A no-virus control (minimum or background luminescence) and a no-compound control (maximum luminescence) are included on each plate. The plates are incubated for 72 h at 37° C. in a humidified 5% CO2 incubator followed by processing for luciferase signal (see below).
Assay medium is aspirated and 200 μl of PBS are added to each well. […] Assay plates are then frozen for at least 2 h at −80° C. followed by thawing at room temperature and vigorous mixing with an electronic pipettor. 25 μl from each well are transferred to an opaque 96-well plate (Costar #3922). Four replicates are pooled into the same well on the opaque plate. 100 μl of freshly thawed and reconstituted luciferase substrate (Luciferase Assay System, Promega—Cat. No. E1501) are added to each well of the plate with the electronic pipettor, and luminescence is detected immediately on a Dynex MLX plate reader set to medium gain.
The percent inhibition is derived as follows: [1−(luciferase activity in the presence of drug/luciferase activity in the absence of drug)]×100. IC50 values are determined by fitting the inhibition data with a non-linear, four-parameter, variable slope equation (GraphPad Prism, ver. 4.02; GraphPad Software, San Diego, Calif.). Upper and lower inhibition values are constrained to 100% and 0%, respectively for curve fitting. […]

[4] = molecular target: HIV-1JR-FL envelope-mediated membrane fusion (HeLa-EnvJRFL and CEM NKR-CCR5 cells) (Homo sapiens, UniProt P51681); test: cell-based; details: 2D7 in combination with the labelled inhibitor, 1:1 molar ratio
Method: (§1) The HIV-1 RET assay has been described in detail previously (Litwin et al., 1996). Briefly, fluorescein octadecyl ester (F18; Molecular Probes, Eugene, Oreg.; 5 mg/ml in ethanol), was diluted 1:800 in DMEM labeling medium (DMEM; Invitrogen, Carlsbad, Calif.) with 10% fetal bovine serum (FBS; HyClone, Logan, Utah) and adjusted to an A506 of 0.34±10%. Octadecyl rhodamine B chloride (R18; Molecular Probes; 10 mg/ml in ethanol) was diluted 1:2050 in labeling medium and adjusted to an A565 of 0.52±10%. Both dyes were further diluted 2-fold by addition to cells in T75-cm^2 flasks. HeLa-EnvJRFL and CEM NKR-CCR5 cells were incubated overnight in F18- and R18-containing culture medium, respectively. The following day, medium from HeLa-EnvJRFL cells was removed and 10 ml of 0.5 mM EDTA was added and incubated at 37° C. for 5 min. EDTA was removed and the flask was returned to the incubator for another 5 min followed by striking of the flask to dislodge cells. […] Suspension CEM NKR-CCR5 cells were added directly to a separate 50-ml conical centrifuge tube. Both cell lines were centrifuged at 300×g for 5 min. The supernatant was discarded and cells were resuspended in 10 ml of PBS-/15% FBS. The centrifugation/wash step was repeated twice, after which the cells were counted and concentrations adjusted to 1.5×10^6 cells/ml. Ten μl of each cell type (15,000 cells) were seeded into wells of a 384-well plate. Inhibitor compounds were added immediately thereafter to bring the final well volume to 40 μl, and the plates were incubated for 4 h at 37° C. Compounds were tested individually and in combination at a fixed molar ratio or mass ratio over a range of serial dilutions. The plates were then read on a fluorescence plate reader (Victor^2, Perkin Elmer, Boston, Mass.) using the excitation/emission filter combinations shown in Table 6.
(§2) The “% RET” was calculated according to the following formula after subtraction of background (blank) readings: […]
(§3) The “% Inhibition” was calculated according to the following formula: […]
(§4) Fifty percent inhibition (IC50) values were determined by fitting the inhibition data with a non-linear, four-parameter, variable slope equation (GraphPad Prism, 4.02; GraphPad Software, San Diego, Calif.). Upper and lower inhibition values were constrained to 100% and 0%, respectively for curve fitting.
(§5) For testing, small molecule compounds were solubilized in dimethylsulfoxide (DMSO) to 10 mM and then diluted in DMSO to 200× the final concentration to be utilized in the antiviral assay. Serial dilutions of small molecules were conducted in DMSO. Subsequent dilutions were conducted in medium to achieve a final DMSO concentration in the assay of 0.5%. Peptides and mAbs were diluted in PBS in the absence of DMSO.
(§6) HeLa cells were engineered to express HIV-1 gp120/gp41 from the macrophage-tropic primary isolate JRFL as described (HeLa-EnvJRFL; Litwin et al., 1996). Briefly, the HIV-1LAI Env gene was excised from the plasmid pMA243 (Dragic et al., 1992) and the HIV-1JRFL Env gene was inserted. The HIV-1JRFL Env gene was amplified from the plasmid pUCFL112-1 (Koyanagi et al., 1987). The resulting plasmid, designated JR-FL-pMA243, was sequenced by standard methods and transfected into HeLa cells using lipofectin (Gibco BRL/Invitrogen, Carlsbad, Calif.). HeLa-EnvJRFL transfectants were selected in methotrexate (Sigma, St. Louis, Mo.) and cloned twice by limiting dilution. The transduced human T cell leukemia line CEM NKR-CCR5 cells were obtained from the NIH AIDS Research and Reference Program (Cat. No. 458).
(§7) The HIV-1 RET assay has been described in detail previously (Litwin et al., 1996). Briefly, fluorescein octadecyl ester (F18; Molecular Probes, Eugene, Oreg.; 5 mg/ml in ethanol), was diluted 1:800 in DMEM labeling medium (DMEM; Invitrogen, Carlsbad, Calif.) with 10% fetal bovine serum (FBS; HyClone, Logan, Utah) and adjusted to an A506 of 0.34±10%.

[5] = in vivo, cited from earlier work
[6] = tested on: HIV-1JR-FL envelope-mediated membrane fusion (HeLa-EnvJRFL and CEM NKR-CCR5 cells); test: cell-based; details: 1st inhibitor alone (Table 13)
Method: as §1, §2, §3, §4, §5, §6, §7

HIV-1JR-FL envelope-mediated membrane fusion (HeLa-EnvJRFL and CEM NKR-CCR5 cells) (Homo sapiens, UniProt P51681), sequence (P51681 whole entry, the tested form may be a part): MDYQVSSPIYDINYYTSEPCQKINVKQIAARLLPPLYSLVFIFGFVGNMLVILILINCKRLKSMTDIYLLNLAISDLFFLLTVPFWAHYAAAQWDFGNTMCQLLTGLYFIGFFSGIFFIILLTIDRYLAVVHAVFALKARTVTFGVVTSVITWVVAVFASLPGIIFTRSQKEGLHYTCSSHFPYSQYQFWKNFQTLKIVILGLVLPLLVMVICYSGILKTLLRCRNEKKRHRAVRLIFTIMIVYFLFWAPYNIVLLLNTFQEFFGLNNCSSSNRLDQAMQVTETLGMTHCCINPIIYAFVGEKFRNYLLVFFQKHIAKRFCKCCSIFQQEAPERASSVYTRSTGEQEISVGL

For `CCCCN1C(=O)[C@@H]([C@H](O)C2CCCCC2)NC(=O)C12CCN(Cc1ccc(Oc3ccc(C(=O)O)cc3)cc1)CC2` [GW873140], the “mean reductions in HIV-1 RNA levels” value (HIV-1) is listed as roughly 1 log10.
For `CCO/N=C(\c1ccc(Br)cc1)C1CCN(C2(C)CCN(C(=O)c3c(C)cc[n+]([O-])c3C)CC2)CC1` [SCH-C], the “mean reductions in HIV-1 RNA levels” value (HIV-1) is given as roughly 1 log10.
In the case of `CCCCOCCOc1ccc(-c2ccc3c(c2)/C=C(/C(=O)Nc2ccc([S@@+]([O-])Cc4cncn4CCC)cc2)CCCN3CC(C)C)cc1.CS(=O)(=O)O` [TAK-652], the safety and tolerability [1] is listed as “safe and well tolerated”.
With `Cc1ccnc2c1NC(=O)c1cccnc1N2C1CC1` [nevirapine] the CI50 [2] was 1.2 ± 0.34, the CI90 [2] was 0.63 ± 0.19 and the CI50 [3] was 1.2 ± 0.38. The CI90 [3] was 0.73 ± 0.28.
Work on `Cc1cn([C@H]2C[C@H](N=[N+]=[N-])[C@@H](CO)O2)c(=O)[nH]c1=O` [zidovudine] yielded a CI50 [2] of 0.99 ± 0.27, a CI90 [2] of 1.0 ± 0.38 and a CI50 [3] of 1.1 ± 0.38. It also gave a CI90 [3] of 0.85 ± 0.26.
For “RANTES: CC-chemokine, natural peptide ligand of CCR5, purchased from R&D Systems”, the “inhibition of HIV-1 pseudovirus entry” value [3] was “Neither TAK-779 nor RANTES mediated consistent, high-level inhibition”, the “Mean Dose Reduction (2D7)” value [4] was 1.94 ± 0.08 and the “Mean Dose Reduction (Cpd in combination)” value [4] was 10.18 ± 1.86.
For TAK-779, the oral bioavailability ([5]; po) is given as “poor oral bioavailability”, the local tolerability [5] is given as “local injection site irritation” and the “inhibition of HIV-1 pseudovirus entry” value [3] is given as “Neither TAK-779 nor RANTES mediated consistent, high-level inhibition”.
With enfuvirtide the IC50 [6] was 0.0086 µM and the IC90 [6] was 0.066 µM.

Source: patent US20090074766A1, “Methods of inhibiting HIV-2 infection” (priority 2007, published 2009)
